From publication PMC4657239, “BluB/CobT2 fusion enzyme activity reveals mechanisms responsible for production of active form of vitamin B12 by Propionibacterium freudenreichii” (Microbial Cell Factories, 2015)

Target: T1, BluB/CobT2 (Propionibacterium freudenreichii, UniProt D7GJ95)
T1 construct: E. coli KRX, pFN18A; HaloTag removed by HaloTEV; N-terminal SDNA replaces initial Met
Test: LC-ESI-MS of alpha-ribazole phosphate formed
Format: biochemical
Conditions: 200 µM NaMN, 100 µM DMBI, 1 mM DTT, Tris-HCl pH 8.5, room temperature; CobT activity

T1 sequence (D7GJ95 entry or part of it): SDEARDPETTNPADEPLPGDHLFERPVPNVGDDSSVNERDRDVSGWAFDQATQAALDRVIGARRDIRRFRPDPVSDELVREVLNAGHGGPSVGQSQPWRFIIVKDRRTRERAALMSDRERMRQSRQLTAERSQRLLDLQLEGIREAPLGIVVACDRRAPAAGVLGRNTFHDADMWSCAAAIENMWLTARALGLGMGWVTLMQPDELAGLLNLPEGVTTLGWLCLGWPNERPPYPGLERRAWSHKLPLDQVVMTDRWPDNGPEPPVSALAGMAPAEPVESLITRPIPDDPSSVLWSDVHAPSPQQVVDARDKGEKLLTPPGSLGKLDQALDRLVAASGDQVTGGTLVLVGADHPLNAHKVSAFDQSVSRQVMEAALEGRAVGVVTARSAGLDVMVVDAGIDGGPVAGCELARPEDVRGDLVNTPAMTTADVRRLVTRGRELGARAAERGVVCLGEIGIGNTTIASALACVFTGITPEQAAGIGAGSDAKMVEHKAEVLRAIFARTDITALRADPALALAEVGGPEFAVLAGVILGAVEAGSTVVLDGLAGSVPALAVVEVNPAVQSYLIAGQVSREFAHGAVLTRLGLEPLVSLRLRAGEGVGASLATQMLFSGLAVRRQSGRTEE

## O=C([O-])c1ccc[n+]([C@@H]2O[C@H](COP(=O)(O)O)[C@@H](O)[C@H]2O)c1 [NaMN]
  LC-ESI-MS of alpha-ribazole phosphate formed: confirms that NaMN is the preferred substrate
